Converted amounts (≈) assume the structure as drawn.
Test system: 3T3 fibroblasts
Experiment: Cell viability by MTT assay in fibroblasts
Format: cell-based
Settings: 24 h; for IC50: Fibroblast, read-out: 50% Inhibitory Concentration (IC50)
Text: All cell lines (RAW 264.7 murine macrophages, DC2.4 dendritic cells, and 3T3 fibroblasts; ATCC, Manassas, VA) were maintained according to ATCC guidelines. B3Z T cells were obtained from Dr. Nilabh Shastri (Johns Hopkins) and maintained and used as previously outlined. See, Broaders, K. E.; Cohen, J. A.; Beaudette, T. T.; Bachelder, E. M.; Frechet, J. M., Acetalated dextran is a chemically and biologically tunable material for particulate immunotherapy. Proc Natl Acad Sci USA 2009, 106 (14), 5497-502. Cell viability was determined with an MTT assay, as previously described. See, Chen, N.; Collier, M. A.; Gallovic, M. D.; Collins, G. C.; Sanchez, C. C.; Fernandes, E. Q.; Bachelder, E. M.; Ainslie, K. M., Degradation of acetalated dextran can be broadly tuned based on cyclic acetal coverage and molecular weight. Int J Pharm 2016, 512 (1), 147-157.

Row | SMILES | IC50 [µg/mL] | 50% Inhibitory Concentration (IC50) [µg/mL]
1 | Cc1ncc[nH]1 [2-methylimidazole] | ~1000 (≈ 12.2 mM) | 
2 | NCCC(=O)N[C@@H](Cc1cnc[nH]1)C(=O)O [L-carnosine] | > 1000 | 
3 | CC(=O)[O-].CC(=O)[O-].[Zn+2] [zinc acetate dihydrate] |  | 16.0 ± 1.0
4 | O.O.O.O.O.O.O=[N+]([O-])[O-].O=[N+]([O-])[O-].[Zn+2] [zinc nitrate hexahydrate] |  | 25.8 ± 2.1

Reference: US20250295762A1, “COMPOSITE BIOACTIVE COMPOSITIONS AND APPLICATIONS THEREOF” (THE UNIVERSITY OF NORTH CAROLINA AT CHAPEL HILL, priority 2022, published 2025)
